Among the test systems are CCRF-CEM leukemia; HCT-116 colon; HL-60(TB) leukemia; MCF7 breast; NCI-H522 lung; OVCAR-5 ovarian; RPMI-8226 leukemia; RXF 393 renal; SW-620 colon; UACC-257 melanoma.
What all share (assay): NCI-60 cell line screen, 48 h

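Briefly, cells in 96-well plates were exposed to five compound concentrations for 48 h, and endpoints were estimated by linear interpolation. GI50 is the concentration that inhibits growth by half. The concentration for full growth arrest is given as TGI.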

On to `COC(=O)c1c2c(c(C)[n+]([O-])c1C)C(=O)C=C(NCc1ccc(F)cc1)C2=O`, for which the GI50 is 0.5 µM with CCRF-CEM leukemia; 0.319 µM in the assay with HCT-116 colon; 0.454 µM with HL-60(TB) leukemia; 0.276 µM in the assay on MCF7 breast; 0.792 µM in the assay on NCI-H522 lung; 1.39 µM in the assay on OVCAR-5 ovarian. In addition, the GI50 was 1.25 µM in the assay with RPMI-8226 leukemia, 1.43 µM in the assay with RXF 393 renal, 0.344 µM in the assay with SW-620 colon and 0.258 µM in the assay with UACC-257 melanoma. The TGI turned out to be 6 µM in the assay with CCRF-CEM leukemia; 1.18 µM in the assay on HCT-116 colon; 1.92 µM in the assay on HL-60(TB) leukemia; 1.04 µM in the assay on MCF7 breast; 3.2 µM with NCI-H522 lung; 2.88 µM with OVCAR-5 ovarian. Besides, the TGI with RPMI-8226 leukemia amounted to 4.81 µM; in the assay with RXF 393 renal it was 2.93 µM; with SW-620 colon, 1.38 µM; in the assay with UACC-257 melanoma it was 0.822 µM.

Consider `COc1ccc(C(=O)Nc2ccc(O)c(=O)cc2)cc1`, for which the TGI is 72.1 µM with CCRF-CEM leukemia; greater than 100 µM in the assay on HCT-116 colon; 54.6 µM in the assay with HL-60(TB) leukemia; 65 µM in the assay on MCF7 breast; 63.1 µM in the assay on NCI-H522 lung; greater than 100 µM with OVCAR-5 ovarian. Besides, the TGI with RPMI-8226 leukemia is greater than 100 µM; in the assay on RXF 393 renal it was 37.3 µM; in the assay with SW-620 colon it was greater than 100 µM; with UACC-257 melanoma it was greater than 100 µM.

For `Cc1nc(N)sc1N=Nc1ccccc1Br`, the TGI in the assay on CCRF-CEM leukemia is greater than 100 µM; with HCT-116 colon, 55.1 µM; with HL-60(TB) leukemia, greater than 75.9 µM; with MCF7 breast, 70.2 µM; with NCI-H522 lung it was 30.3 µM; in the assay on OVCAR-5 ovarian it was greater than 90.5 µM. Besides, the TGI with RPMI-8226 leukemia is greater than 100 µM; in the assay on RXF 393 renal, 43.6 µM; in the assay on SW-620 colon, greater than 100 µM; with UACC-257 melanoma it was 55.8 µM.

`NC(N)=N/N=C/c1c(Cl)cccc1Cl`: the GI50 in the assay on CCRF-CEM leukemia was 28.5 µM; in the assay with HCT-116 colon, 17.2 µM; with HL-60(TB) leukemia it was 21.8 µM; in the assay with MCF7 breast it was 17.2 µM; in the assay with NCI-H522 lung it was 25.8 µM; in the assay on OVCAR-5 ovarian it was 22.4 µM. Further, the GI50 was 40.7 µM with RPMI-8226 leukemia, 15.5 µM in the assay on RXF 393 renal, 15.8 µM in the assay on SW-620 colon and 12.3 µM in the assay on UACC-257 melanoma. Further, the TGI was greater than 100 µM in the assay with CCRF-CEM leukemia; 36.1 µM in the assay on HCT-116 colon; 50.9 µM with HL-60(TB) leukemia; 41.5 µM with MCF7 breast; 77.2 µM with NCI-H522 lung; 79.8 µM with OVCAR-5 ovarian. In addition, the TGI was greater than 100 µM in the assay with RPMI-8226 leukemia, 35.8 µM with RXF 393 renal, 30.6 µM in the assay with SW-620 colon and 27.3 µM with UACC-257 melanoma.

On to `O=c1oc2ccc(-c3ccc(F)cc3F)cc2c(=O)n1-c1cccc(C(F)(F)F)c1`, for which the GI50 in the assay with CCRF-CEM leukemia is 2.42 µM; with HCT-116 colon, 1.33 µM; with HL-60(TB) leukemia, 1.33 µM; with MCF7 breast, 3.22 µM; with NCI-H522 lung, 0.343 µM; in the assay with OVCAR-5 ovarian, 4.11 µM. The GI50 is 0.395 µM with RPMI-8226 leukemia, 1.23 µM in the assay on RXF 393 renal, 2.64 µM with SW-620 colon and 0.274 µM in the assay on UACC-257 melanoma. Also, the TGI in the assay on CCRF-CEM leukemia is 7.85 µM; in the assay with HCT-116 colon, 3.45 µM; with HL-60(TB) leukemia, 3.89 µM; in the assay with MCF7 breast, greater than 100 µM; in the assay with NCI-H522 lung, 5.61 µM; in the assay with OVCAR-5 ovarian, greater than 100 µM. The TGI was determined as 3.26 µM in the assay with RPMI-8226 leukemia, 4.14 µM with RXF 393 renal, 12.8 µM in the assay with SW-620 colon and 3.31 µM with UACC-257 melanoma.

On to `CCOc1ccc(/C=C2\N=C(c3ccc([N+](=O)[O-])cc3)OC2=O)cc1`, for which the TGI with CCRF-CEM leukemia, in the assay on HCT-116 colon, in the assay on HL-60(TB) leukemia, in the assay with MCF7 breast, in the assay with NCI-H522 lung and in the assay on OVCAR-5 ovarian was greater than 100 µM throughout. Also, the TGI in the assay on RPMI-8226 leukemia, with RXF 393 renal, in the assay on SW-620 colon and with UACC-257 melanoma was greater than 100 µM in each case.

Turning to `COc1cc(N(CCC#N)CCC#N)ccc1/C(N=Nc1ccc(Cl)cc1)=N/NC(=O)c1cc(Br)ccc1O`, the GI50 was 74 µg/mL with CCRF-CEM leukemia; 53.2 µg/mL in the assay with HCT-116 colon; 62.1 µg/mL in the assay on HL-60(TB) leukemia; 44.1 µg/mL with MCF7 breast; 56.4 µg/mL in the assay with NCI-H522 lung; greater than 150 µg/mL in the assay on OVCAR-5 ovarian. Also, the GI50 in the assay with RPMI-8226 leukemia was 102 µg/mL; in the assay with RXF 393 renal it was 36.9 µg/mL; in the assay on SW-620 colon, greater than 150 µg/mL; in the assay on UACC-257 melanoma, greater than 150 µg/mL. The TGI with CCRF-CEM leukemia, in the assay with HCT-116 colon, with HL-60(TB) leukemia, in the assay with MCF7 breast, in the assay with NCI-H522 lung and in the assay on OVCAR-5 ovarian was greater than 150 µg/mL each time. Moreover, the TGI with RPMI-8226 leukemia, in the assay on RXF 393 renal, with SW-620 colon and in the assay on UACC-257 melanoma was greater than 150 µg/mL throughout.
